The values below come from patent US20260358340A1, “MATRIX METALLOPROTEINASE 13 SENSITIVE PEPTIDES AND SENSORS” (Julius-Maximilians-Universitaet Wuerzburg, priority 2023, published 2026).

Assay type in all cases: biochemical
What all share (conditions): role: inhibitor; substrate FRET peptide

One test concerns the target MMP9 (Homo sapiens, UniProt P14780). As to the kind of experiment: FRET peptide cleavage assay, MMP9 activity and its inhibition. An excerpt: (§1) A possible application of the peptides is the analysis of protease activity and the effect of substances on it. This can be utilized for understanding the role of proteases in physiological and pathological processes as well as for targeting proteases for disease diagnosis or treatment. […] 7-Methoxycoumain-4-acetic acid (Mca) is a is a fluorescent dye with an excitation peak at 322 nm and an emission peak at 381 nm. The absorbance spectrum of 2,4-dinitrophenyl (Dnp) overlaps with the emission spectrum of Mca, therefore it acts as a quencher. As long as both are in close proximity (up to about 5-10 nm), excitation of Mca leads to energy transfer to Dnp. Separation of the fluorophore-quencher pair by hydrolysis of the protease-specific cleavage site between both compounds liberates the fluorescence signal and the rise in its intensity can easily be monitored overtime. This method is sensitive and time efficient. It allows quantitative assessment of enzymatic activity and the developed fluorogenic substrates are suitable for high throughput screening, for example of protease inhibitors.

The target in another test is MMP8 (Homo sapiens, UniProt P22894). In words: FRET peptide cleavage assay, MMP8 activity and its inhibition.
MMP8, sequence (P22894 101-467): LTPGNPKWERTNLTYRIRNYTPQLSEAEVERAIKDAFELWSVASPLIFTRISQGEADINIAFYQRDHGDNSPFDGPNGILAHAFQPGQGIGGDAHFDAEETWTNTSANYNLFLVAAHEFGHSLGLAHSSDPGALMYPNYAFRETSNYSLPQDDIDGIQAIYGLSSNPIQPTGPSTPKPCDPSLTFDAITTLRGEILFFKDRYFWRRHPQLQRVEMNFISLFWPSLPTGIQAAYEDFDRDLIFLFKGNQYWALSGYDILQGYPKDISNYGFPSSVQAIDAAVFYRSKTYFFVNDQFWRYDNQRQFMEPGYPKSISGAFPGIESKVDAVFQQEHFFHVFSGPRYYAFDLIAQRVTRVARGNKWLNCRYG
Excerpt: as §1

The next test has as its target MMP13 (Homo sapiens, UniProt P45452). As to the kind of experiment: FRET peptide cleavage assay, MMP13 activity and its inhibition.
Excerpt: as §1, with “overtime.” for “overtime. This method is sensitive and time efficient. It allows quantitative assessment of enzymatic activity and the developed fluorogenic substrates are suitable for high throughput screening, for example of protease inhibitors.”

MMP9, sequence (P14780 94-707): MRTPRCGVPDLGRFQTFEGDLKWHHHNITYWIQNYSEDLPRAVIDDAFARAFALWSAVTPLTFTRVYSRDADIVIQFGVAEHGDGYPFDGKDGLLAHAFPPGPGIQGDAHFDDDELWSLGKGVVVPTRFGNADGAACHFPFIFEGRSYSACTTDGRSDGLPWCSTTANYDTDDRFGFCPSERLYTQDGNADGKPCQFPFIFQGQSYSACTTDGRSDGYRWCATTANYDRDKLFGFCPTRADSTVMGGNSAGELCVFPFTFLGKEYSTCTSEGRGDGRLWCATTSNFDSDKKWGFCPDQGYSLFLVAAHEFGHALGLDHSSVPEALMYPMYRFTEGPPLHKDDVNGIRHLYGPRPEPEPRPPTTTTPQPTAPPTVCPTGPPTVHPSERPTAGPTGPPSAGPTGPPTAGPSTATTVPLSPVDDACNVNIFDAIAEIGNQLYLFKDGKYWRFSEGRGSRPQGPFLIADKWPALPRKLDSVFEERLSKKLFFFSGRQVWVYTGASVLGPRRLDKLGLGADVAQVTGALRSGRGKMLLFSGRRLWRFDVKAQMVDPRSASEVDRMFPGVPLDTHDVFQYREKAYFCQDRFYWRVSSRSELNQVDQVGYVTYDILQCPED

For `CNC(=O)[C@@H](NC(=O)[C@H](CC(C)C)[C@H](O)C(=O)NO)C(C)(C)C` [Marimastat], the “loss of MMP9 activity” value at MMP9 is “complete loss”. For the same compound, the “loss of MMP8 activity” value at MMP8 is “complete loss”.

Consider `O=C(O)CN(CCN(CC(=O)O)CC(=O)O)CC(=O)O` [EDTA], for which the “loss of MMP9 activity” value on MMP9 is on record as “complete loss”. Moreover, the “loss of MMP13 activity” value at MMP13 is recorded as “complete loss”. The “loss of MMP8 activity” value on MMP8 is reported as “complete loss”.

On to `CCCCCCCCCCCCOS(=O)(=O)[O-].[Na+]` [SDS], for which the “loss of MMP9 activity” value at MMP9 is on record as “complete loss”. In addition, the “loss of MMP13 activity” value at MMP13 is “complete loss”. In addition, on MMP8, the “loss of MMP8 activity” value is “complete loss”.
